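All cell lines were grown in 96-well plates and treated with compound for 48 hours. Abbreviation: GI50, concentration required for 50% inhibition of growth.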 The source made the active and inactive calls. Rule as the data show it: active = GI50 up to about 1.1 µM and inactive = higher.
Tests used:
Test in all cases: growth of human tumour cells (NCI), 48 h
NCI-H460 = test system: NCI-H460
HCC 2998 = test system: HCC 2998
OVCAR-8 = test system: OVCAR-8
SF-295 = test system: SF-295
SK-MEL-2 = test system: SK-MEL-2
NCI/ADR-RES = test system: NCI/ADR-RES
NCI-H226 = test system: NCI-H226
TK-10 = test system: TK-10
COLO 205 = test system: COLO 205
HT-29 = test system: HT-29
EKVX = test system: EKVX
SN12C = test system: SN12C
Malme-3M = test system: Malme-3M
SNB-75 = test system: SNB-75
HOP-92 = test system: HOP-92
HOP-62 = test system: HOP-62
M14 = test system: M14
NCI-H522 = test system: NCI-H522
A549 = test system: A549

| SMILES | GI50 (NCI-H460) | GI50 (HCC 2998) | GI50 (OVCAR-8) | GI50 (SF-295) | GI50 (SK-MEL-2) | GI50 (NCI/ADR-RES) | GI50 (NCI-H226) | GI50 (TK-10) | GI50 (COLO 205) | GI50 (HT-29) | GI50 (EKVX) | GI50 (SN12C) | GI50 (Malme-3M) | GI50 (SNB-75) | GI50 (HOP-92) | GI50 (HOP-62) | GI50 (M14) | GI50 (NCI-H522) | GI50 (A549) |
| --- | --- | --- | --- | --- | --- | --- | --- | --- | --- | --- | --- | --- | --- | --- | --- | --- | --- | --- | --- |
| COc1ccc2c(c1)C(N)=C(c1ccccc1OC)C2=O | > 100 µM (inactive) | > 100 µM (inactive) | > 100 µM (inactive) | > 100 µM (inactive) | > 100 µM (inactive) | > 100 µM (inactive) | > 100 µM (inactive) | > 100 µM (inactive) | > 100 µM (inactive) | > 100 µM (inactive) | > 100 µM (inactive) | > 100 µM (inactive) | > 100 µM (inactive) | 64.3 µM (inactive) | > 100 µM (inactive) | > 100 µM (inactive) | > 100 µM (inactive) |  |  |
| CC12CCC([C@H](C(O)C3CCCCC3)C1=O)C2(C)C (stereo partly specified) | > 100 µM (inactive) | > 100 µM (inactive) | > 100 µM (inactive) | > 100 µM (inactive) | > 100 µM (inactive) | > 100 µM (inactive) | > 100 µM (inactive) | > 100 µM (inactive) | > 100 µM (inactive) |  | > 100 µM (inactive) | > 100 µM (inactive) |  | > 100 µM (inactive) | > 100 µM (inactive) | > 100 µM (inactive) | > 100 µM (inactive) | 65.8 µM (inactive) |  |
| COc1ccc(CC2C(=O)NC(C)C(=O)N(C)C3C(=O)N(C)C(Cc4ccc(O)c(c4)Oc4ccc(cc4)C3O)C(=O)NC(C)C(=O)NC(C)C(=O)N2C)cc1.COc1ccc(CC2C(=O)NC(C)C(=O)N(C)C3Cc4ccc(cc4)Oc4cc(ccc4O)CC(C(=O)NC(C)C(=O)NC(C)C(=O)N2C)N(C)C3=O)cc1 (stereo unspecified) | 0.0413 µM (active) | 0.00619 µM (active) | 0.0128 µM (active) | 0.0274 µM (active) | 0.00114 µM (active) | 1.5 µM (inactive) | 0.00233 µM (active) | 0.0408 µM (active) | 0.03 µM (active) | 0.01 µM (active) | 0.148 µM (active) |  |  | 0.01 µM (active) | 0.00364 µM (active) | 0.0552 µM (active) | 0.00582 µM (active) | 0.01 µM (active) | 0.0177 µM (active) |
| CC1(C)OC[C@@H]([C@H](O)C2C=CC(=O)S2)O1 (stereo partly specified) | 28.2 µM (inactive) | 16.6 µM (inactive) | 21.2 µM (inactive) | 27.5 µM (inactive) | 20.3 µM (inactive) | 21.5 µM (inactive) | 27.5 µM (inactive) | 44.9 µM (inactive) | 17.9 µM (inactive) | 23.6 µM (inactive) | 31 µM (inactive) | 27.9 µM (inactive) | 18.1 µM (inactive) | 45.5 µM (inactive) | 22.4 µM (inactive) | 47.9 µM (inactive) | 44.3 µM (inactive) |  | 29.6 µM (inactive) |
| Cc1c(NC(=S)N/N=C\C(=N/NC(=S)Nc2c(C)n(C)n(-c3ccccc3)c2=O)c2ccccc2)c(=O)n(-c2ccccc2)n1C | > 100 µM (inactive) | > 100 µM (inactive) |  | > 100 µM (inactive) | > 100 µM (inactive) | > 100 µM (inactive) | > 100 µM (inactive) | > 100 µM (inactive) | > 100 µM (inactive) | > 100 µM (inactive) | > 100 µM (inactive) |  | 87.1 µM (inactive) | > 100 µM (inactive) | > 100 µM (inactive) | > 100 µM (inactive) | > 100 µM (inactive) |  | > 100 µM (inactive) |
| CC1(C)CC(=O)C(=CN2C(=O)CNC2=S)C(=O)C1 | > 100 µM (inactive) | > 100 µM (inactive) | > 100 µM (inactive) | > 100 µM (inactive) | > 100 µM (inactive) | > 100 µM (inactive) | > 100 µM (inactive) | > 100 µM (inactive) | > 100 µM (inactive) |  | > 100 µM (inactive) | > 100 µM (inactive) |  | > 100 µM (inactive) | > 100 µM (inactive) | > 100 µM (inactive) | > 100 µM (inactive) | > 100 µM (inactive) | > 100 µM (inactive) |
